Test results published in patent US20240398756A1, “DRUG FOR REDUCING BLOOD GLUCOSE AND/OR TREATING DIABETIC COMPLICATIONS” (SICHUAN UNIVERSITY, priority 2022, published 2024).
Counter-ions that a name gives are not always drawn.

Experiments:
C57BL/KsJ db/db mice [1] = experiment: Transcript levels of TNF-α, IL-1β and IL-6 genes in kidney tissues; assay type: in vivo; details: 30 mg/kg i.p. once a day, 4 weeks
Procedure: (§1) 10-week male C57BL/KsJ db/db mice, SPF grade, provided by Jiangsu GemPharmatech Co. Ltd., Changzhou Branch, certificate number: 202012449, with an initial weight of 44±2 g, underwent adaptive feeding for two weeks. […] There were 6 littermate w/w male mice of the same week age as the solvent control group. Different doses were given by intraperitoneal injection at 10 mL/kg volume once a day for four weeks, respectively, and equal volumes of normal saline were given by intraperitoneal injection in the control and model groups. During the treatment cycle, the blood glucose changes in mice were detected every three days, and the percentages of blood glucose reduced by the drugs were calculated based on the difference between the blood glucose of the model and the normal control group, so as to clarify the hypoglycemic effect of the drugs.

C57BL/KsJ db/db mice [2] = experiment: Serum CRE, BUN and UACR in diabetic nephropathy mice; assay type: in vivo; details: 30 mg/kg i.p. once a day, four weeks
Procedure: as §1

C57BL/KsJ db/db mice [3] = experiment: TNF-α, IL-1β and IL-6 contents in sciatic nerve; assay type: in vivo; details: 50 mg/kg i.p. three times a week, 8 weeks
Procedure: (§2) Eighteen 16-week male C57BL/KsJ db/db mice, SPF grade, provided by Jiangsu GemPharmatech Co. Ltd., Changzhou Branch. […] The littermate w/w male mice of the same age were selected as the control group. The heat pain threshold was measured in all mice before administration to determine DPN symptoms. […] The control group and the db/db model group were intraperitoneally injected with an equal volume of saline. During the treatment period, blood glucose changes in mice were monitored every three days to determine the hypoglycemic effect of the drug. At the end of the 8th week, the heat pain threshold was detected. Mice were sacrificed to detect related factors through detection kits.
(§3) At the end of the experiment, mice were sacrificed and sciatic nerve cells were isolated. In order to determine the contents of MDA, GSH, SOD, TNF-α, IL-6 and IL-1β in the sciatic nerve, the sciatic nerve was first cut into fragments (100 mg: 1800 μL) with small scissors in normal saline and homogenized with Beed Ruptor 24 Elite. Then, the homogenate was centrifuged at 4° C. and 3500 rpm for 15 min, and the supernatant was collected for use. Then, commercial kits were used to determine the activity of SOD and the contents of MDA, GSH, TNF-α, IL-6 and IL-1β in sciatic nerve homogenate.

C57BL/KsJ db/db mice [4] = experiment: Kidney tissue pathology (HE, PAS, TEM) in diabetic nephropathy mice; assay type: in vivo; details: 30 mg/kg i.p. once a day, four weeks
Procedure: as §1

C57BL/KsJ db/db mice [5] = experiment: MDA content and SOD activity in kidney tissues; assay type: in vivo; details: 30 mg/kg i.p. once a day, 4 weeks
Procedure: as §1

C57BL/KsJ db/db mice [6] = experiment: Blood glucose in db/db diabetic peripheral neuropathy mice (Embodiment 8); assay type: in vivo; details: 50 mg/kg i.p. three times a week, 8 weeks
Procedure: as §2

C57BL/KsJ db/db mice [7] = experiment: Na+-K+-ATPase activity in red blood cells and sciatic nerve; assay type: in vivo; details: 50 mg/kg i.p. three times a week, 8 weeks
Procedure: as §2
After 8 weeks treatment, all mice were sacrificed and the sciatic nerve was isolated. In order to determine the activity of Na^+—K^+-ATPase in red blood cells and sciatic nerve of mice, 10 μL whole blood was collected and added into 240 μL distilled water for mixing, and the activity of Na^+—K^+-ATPase was determined immediately. The sciatic nerve tissue of mice was collected. First, the sciatic nerve was cut into fragments (100 mg: 1800 μL) with small scissors in normal saline and homogenized with Beed Ruptor 24 Elite. Then, the homogenate was centrifuged at 4° C. and 3500 rpm for 15 min, and the supernatant was collected for use.

[8] = intravenous injection, human body; cited from earlier work
C57BL/KsJ db/db mice [9] = experiment: SOD activity and MDA, GSH contents in sciatic nerve; assay type: in vivo; details: 50 mg/kg i.p. three times a week, 8 weeks
Procedure: as §2, §3

C57BL/KsJ db/db mice [10] = experiment: Serum insulin content and insulin resistance index in db/db diabetic mice; assay type: in vivo; details: gavage, end of 1 month treatment, nanoparticles 100 mg/kg every 3 days, LA monomer 100 mg/kg and metformin 120 mg/kg daily
Text: 8-week male C57BL/KsJ db/db mice, SPF grade, provided by Jiangsu GemPharmatech Co. Ltd., Changzhou Branch, certificate number: 202012449, with an initial weight of 44±2 g, underwent adaptive feeding for one week. A total of 24 C57BL/KsJ db/db mice were randomly divided into 4 groups according to body weight and blood glucose, with 6 mice in each group. […] There were 6 littermate w/w male mice of the same week age as the solvent control group. […] After administration of a single dose, the blood glucose changes of mice were continuously monitored for 3 days. During the 1-month treatment cycle, the blood glucose changes of the mice were detected every 3 days. […] The mice were killed by enucleation and bloodletting, serum samples were collected by centrifugation at room temperature, the serum insulin content was detected by mouse insulin ELISA detection kit, and the insulin resistance index was calculated, and the percentage of the drug to reduce the serum insulin content and insulin resistance index was calculated based on the difference between the model and the normal control group. The results of the quantitative experiment were expressed as mean±variance (x±s). SPSS version19.0 Statistical Software (Chicago, IL, USA) was used to compare the differences between groups using one-way analysis of variance. When the difference was significant (P<0.05), the Turkey post hoc method was used for pairwise comparison, and when P<0.05, the difference was considered statistically significant.

C57BL/KsJ db/db mice [11] = experiment: Blood glucose in db/db type 2 diabetes mice (Embodiment 4); assay type: in vivo; details: gavage; for reduction of blood glucose contents: 1 month, nanoparticles 100 mg/kg once every 3 days, LA monomer 100 mg/kg and metformin 120 mg/kg once a day, relative to model-normal control difference
Procedure: A total of 24 C57BL/KsJ db/db mice were randomly divided into 4 groups according to body weight and blood glucose, with 6 mice in each group. […] There were 6 littermate w/w male mice of the same week age as the solvent control group. […] After administration of a single dose, the blood glucose changes of mice were continuously monitored for 3 days. During the 1-month treatment cycle, the blood glucose changes of the mice were detected every 3 days. On the 30th day, 2 h after the end of administration, the blood glucose of mice was measured, and the percentage of blood glucose reduced by the drug was calculated based on the difference between the blood glucose of the model and the normal control group. The mice were killed by enucleation and bloodletting, serum samples were collected by centrifugation at room temperature, the serum insulin content was detected by mouse insulin ELISA detection kit, and the insulin resistance index was calculated, and the percentage of the drug to reduce the serum insulin content and insulin resistance index was calculated based on the difference between the model and the normal control group.
The results of the quantitative experiment were expressed as mean±variance (x±s). SPSS version19.0 Statistical Software (Chicago, IL, USA) was used to compare the differences between groups using one-way analysis of variance. When the difference was significant (P<0.05), the Turkey post hoc method was used for pairwise comparison, and when P<0.05, the difference was considered statistically significant.

C57BL/KsJ db/db mice [12] = experiment: Blood glucose in db/db diabetic nephropathy mice (Embodiment 6); assay type: in vivo; details: 30 mg/kg intraperitoneal once a day, four weeks
Procedure: as §1, with “drugs. […] The results of the quantitative experiment were expressed as mean±variance (x±s). SPSS version19.0 Statistical Software (Chicago, IL, USA) was used to compare the differences between groups using one-way analysis of variance. When the difference was significant (P<0.05), the Turkey post hoc method was used for pairwise comparison, and when P<0.05, the difference was considered statistically significant.” for “drugs.”

O=C(O)CCCCC1CCSS1 (centres unmarked) [LA monomer, lipoic acid]
reduction of IL-1β transcript level in kidney (C57BL/KsJ db/db mice [1]): 18.18%
reduction of IL-6 transcript level in kidney (C57BL/KsJ db/db mice [1]): 23.33%
reduction of TNF-α transcript level in kidney (C57BL/KsJ db/db mice [1]): 22.5%
decrease of BUN content vs db/db model group (C57BL/KsJ db/db mice [2]): 25.45%
decrease of UACR level vs db/db model group (C57BL/KsJ db/db mice [2]): 24.75%
decrease of serum CRE vs db/db model group (C57BL/KsJ db/db mice [2]): 21.05%
decrease of IL-1β level in sciatic nerve tissue vs db/db mice (C57BL/KsJ db/db mice [3]): 27.46%
decrease of IL-6 level in sciatic nerve tissue vs db/db mice (C57BL/KsJ db/db mice [3]): 38.42%
decrease of TNF-α level in sciatic nerve tissue vs db/db mice (C57BL/KsJ db/db mice [3]): 34.42%
decrease of basement membrane thickness vs db/db model group (C57BL/KsJ db/db mice [4]): 6.57%
increase of number of foot processes vs db/db model group (C57BL/KsJ db/db mice [4]): 10.14%
shrinkage of glomeruli vs db/db model group (C57BL/KsJ db/db mice [4]): 25.50%
increase of SOD activity in kidney tissues (C57BL/KsJ db/db mice [5]): 55%
reduction of MDA content in kidney tissues (C57BL/KsJ db/db mice [5]): 9.8%
hypoglycemic effect (in words) (C57BL/KsJ db/db mice [6]): no hypoglycemic effect
increase of Na+-K+-ATPase activity in sciatic nerve vs db/db mice (C57BL/KsJ db/db mice [7]): 120%
increase of Na+-K+-ATPase activity of red blood cells vs db/db mice (C57BL/KsJ db/db mice [7]): 137%
fraction passing through the glomerulus into the renal tubules and excreted in the urine [8]: 80-90%
decrease of MDA content in sciatic nerve (C57BL/KsJ db/db mice [9]): 30.79%
increase of GSH content in sciatic nerve (C57BL/KsJ db/db mice [9]): 10.79
increase of SOD activity in sciatic nerve (C57BL/KsJ db/db mice [9]): 15.76%
decrease of serum insulin content (C57BL/KsJ db/db mice [10]): no significant difference
reduction of blood glucose contents (C57BL/KsJ db/db mice [11]): no hypoglycemic effect
blood glucose levels versus model group after a single dose (C57BL/KsJ db/db mice [11]; single dose 100 mg/kg, monitored 3 days): no significant difference
reduction of blood glucose content (C57BL/KsJ db/db mice [12]): no hypoglycemic effect

CN(C)C(=N)N=C(N)N [metformin, metformin hydrochloride]
decrease of insulin resistance index (C57BL/KsJ db/db mice [10]): 53.68%
decrease of serum insulin content (C57BL/KsJ db/db mice [10]): 34.69%
reduction of blood glucose contents (C57BL/KsJ db/db mice [11]): 50.28%
duration of hypoglycemic effect after a single dose (C57BL/KsJ db/db mice [11]; single dose, nanoparticles 100 mg/kg, metformin 120 mg/kg): ≤ 24 h
